{
  "source": "patent US9149445B2",
  "about": "“Inhibition of glycerol-3-phosphate acyltransferase (GPAT) and associated enzymes for treatment of viral infections” (THE TRUSTEES OF PRINCETON UNIVERSITY, priority 2009, dated 2015)",
  "key": {"[1]": {"test_system": "panel of 140 protein kinases", "settings": "cited from earlier work"}, "[2]": {"test_system": "GPAT", "settings": "cited from earlier work"}, "[3]": {"test_system": "HCMV", "assay": "HCMV replication in serum-starved fibroblasts, infectious progeny by TCID50 assay", "format": "cell-based, human cytomegalovirus", "settings": "multiplicity 0.1 TCID50 units per cell", "description": "FIG. 2. Inhibition of HCMV Replication by Inhibition of GPAT. Serum-starved fibroblasts were infected with HCMV at a multiplicity of 0.1 TCID50 units per cell. After adsorption for 1 h, cultures were re-fed with serum-free medium containing concentrations of 2.5 μg/ml, 5 μg/ml and 10 μg/ml of FAS 115 or with DMSO, the solvent used to dissolve FAS 115. Medium was assayed at 0, 2, 4, 6, 8, 10 and 12 days after infection and the production of infectious progeny was determined by TCID50 assay on fibroblasts.\nSerum-starved fibroblasts were infected with HCMV at a multiplicity of 0.1 TCID50 units per cell. After adsorption for 1 h, cultures were re-fed with serum-free medium containing concentrations of 2.5μ/ml, 5μ/ml and 10μ/ml of FAS 115 or with DMSO, the solvent used to dissolve FAS 115. The medium was assayed at 0, 2, 4, 6, 8, 10 and 12 days after infection and the production of infectious progeny was determined by TCID50 assay on fibroblasts. […] At the highest concentration, production of virus was not observed on day 12 after infection. (FIG. 2).\nCell Lines, Viral Stock. Low passage fibroblasts (passage 6-8) were cultured in a medium containing 10% fetal bovine serum. Bacterial artificial chromosome-derived HCMV AD 169 strain (BADWT) was propagated in human foreskin fibroblasts (HFFs), concentrated via a 20% sorbitol cushion, and resuspended as a stock in serum-free media."}, "[4]": {"test_system": "human cytomegalovirus", "assay": "HCMV late protein expression by Western blot in infected fibroblasts", "format": "cell-based", "settings": "intermediate and high concentrations (5μ/ml and 10μ/ml); 96 hours after infection; multiplicity 3.0 TCID50 units/cell; compared to tubulin and IE-1", "description": "FIG. 3. Dose-dependent Inhibition of Human Cytomegalovirus Late Protein Expression by Inhibition of GPAT. Serum-starved fibroblasts were infected with human cytomegalovirus at a multiplicity of 3.0 TCID50 units/cell. After adsorption for 1 h, cultures were re-fed with serum-free medium containing the indicated concentrations of FAS 115 or with DMSO, the solvent used to dissolve FAS 115. Cells were harvested at 96 hours after infection and viral protein expression was assessed by Western blot. IE-1 is a viral protein expressed immediately early during infection. pp65 and pp28 are viral proteins expressed late during HCMV infection. Tubulin is a loading control.\nSerum-starved fibroblasts were infected with human cytomegalovirus at a multiplicity of 3.0 TCID50 units/cell. After adsorption for 1 h, cultures were re-fed with serum-free medium containing 2.5μ/ml, 5μ/ml and 10μ/ml of FAS 115 or with DMSO, the solvent used to dissolve FAS 115. Cells were harvested at 96 hours after infection and viral protein expression was assessed by Western blot. IE-1 is a viral protein expressed during the immediate-early phase of infection. pp65 and pp28 are viral proteins expressed late during HCMV infection. Tubulin is a loading control. […] (FIG. 3)."}, "[5]": {"test_system": "herpes simplex virus-1", "assay": "HSV-1 replication in serum-starved fibroblasts, infectious progeny by TCID50 assay", "format": "cell-based", "settings": "multiplicity 0.01 TCID50 units/cell", "description": "FIG. 4. Dose-dependent Inhibition of Herpes Simplex Virus-1 Replication by Inhibition of GPAT. Serum-starved fibroblasts were infected with herpes simplex virus-1 at a multiplicity of 0.01 TCID50 units/cell. After adsorption for 1 h, cultures were re-fed with serum-free medium containing the indicated concentrations of FAS 115 or with DMSO, the solvent used to dissolve FAS 115. Medium was harvested at the indicated times after infection and the production of infectious progeny was determined by TCID50 assay on fibroblasts.\nSerum-starved fibroblasts were infected with herpes simplex virus-1 at a multiplicity of 0.01 TCID50 units/cell. After adsorption for 1 h, cultures were re-fed with serum-free medium containing concentrations of 2.5μ/ml, 5μ/ml and 10μ/ml of FAS 115 of FAS 115 or with DMSO, the solvent used to dissolve FAS 115. The medium was assayed daily for five days and the production of infectious progeny was determined by TCID50 assay on fibroblasts. […] At higher concentrations, the concentration of infections virus was reduced to 1 TCID50 unit/ml or less after 5 days. (FIG. 4)."}, "[6]": {"target": "mTOR (Homo sapiens, UniProt P42345)", "settings": "selective mTOR inhibitors; cited from earlier work"}},
  "data": [
    {"smiles": "Cc1c(C(=O)N2CCOc3ccc(-c4ccc(N)nc4)cc3C2)ccc(S(C)(=O)=O)c1F", "note": "[XL388]", "values": [
      {"measurement": "IC50", "setting": "[1]", "value": "> 3000", "unit": "nM"}
    ]},
    {"smiles": "CCCCCCCC[C@@]1(C)SC(=O)C=C1OC(=O)OCC", "note": "[FAS 115]", "values": [
      {"measurement": "inhibition of GPAT", "setting": "[2]", "value": "inhibits GPAT"},
      {"measurement": "production of virus", "setting": "[3]; highest concentration (10μ/ml), day 12 after infection", "value": "not observed"},
      {"measurement": "viral titers reduced", "setting": "[3]; lowest FAS 115 concentration (2.5μ/ml), versus DMSO", "value": "about an order of magnitude"},
      {"measurement": "expression of pp28", "setting": "[4]", "value": "noticeably reduced"},
      {"measurement": "expression of pp65", "setting": "[4]", "value": "noticeably reduced"},
      {"measurement": "concentration of infections virus", "setting": "[5]; higher concentrations (5μ/ml, 10μ/ml), after 5 days", "value": "≤ 1", "unit": "TCID50 unit/ml"},
      {"measurement": "viral titers lower than in untreated cells", "setting": "[5]; lowest FAS 115 concentration (2.5μ/ml)", "value": "about an order of magnitude"}
    ]},
    {"smiles": "c1cncc(CN2CCC(n3ncc4c(N5CCOCC5)nc(-c5ccc6[nH]ccc6c5)nc43)CC2)c1", "note": "[WAY-600]", "values": [
      {"measurement": "IC50", "setting": "[6]", "value": 9, "unit": "nM"}
    ]},
    {"smiles": "CNC(=O)Nc1ccc(-c2nc(N3CC4CCC(C3)O4)c3cnn(C4CCC5(CC4)OCCO5)c3n2)cc1", "note": "[WYE-125132]", "values": [
      {"measurement": "IC50", "setting": "[6]", "value": 0.19, "unit": "nM"}
    ]},
    {"smiles": "COC(=O)Nc1ccc(-c2nc(N3CCOCC3)c3cnn(C4CCN(C(=O)OC)CC4)c3n2)cc1", "note": "[WYE354]", "values": [
      {"measurement": "IC50", "setting": "[6]", "value": 5, "unit": "nM"}
    ]}
  ]
}
